Where two headings read alike, the source gives them in different places.
Assays:
Experiment in all cases: Kinase inhibitory activity profiling of RI-962@10 µM (406 kinases, Eurofins)
Format in all cases: biochemical
[1] = target: panel of human kinases (kinase named in endpoint) (Homo sapiens, UniProt Q16539); settings: 10 µM; read-out: Activity (%), SAPK2a(h)
In short: (§1)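 Radiometric filter-binding kinase assays: enzyme preincubated 15 min with compound in 8 mM MOPS pH 7.0, 0.2 mM EDTA, 250 μM peptide substrate, 10 mM magnesium acetate, 10 μM [γ-33P]-ATP. Reaction started with Mg/ATP, run 40 min at room temperature, stopped with phosphoric acid; 33P incorporation read by scintillation counting. Other kinases by similar protocols.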

[2] = target: panel of human kinases (kinase named in endpoint) (Homo sapiens, UniProt Q9H422); settings: 10 µM; read-out: Activity (%), HIPK3(h)
In short: as §1

[3] = target: panel of human kinases (kinase named in endpoint) (Homo sapiens, UniProt P06493); settings: 10 µM; read-out: Activity (%), CDK1/cyclinB(h)
In short: as §1

[4] = target: panel of human kinases (kinase named in endpoint) (Homo sapiens, UniProt Q9UPE1); settings: 10 µM; read-out: Activity (%), MSSK1(h)
In short: as §1

[5] = target: panel of human kinases (kinase named in endpoint) (Homo sapiens, UniProt P04626); settings: 10 µM; read-out: Activity (%), ErbB2(h)
In short: as §1

[6] = target: panel of human kinases (kinase named in endpoint) (Homo sapiens, UniProt O96017); settings: 10 µM; read-out: Activity (%), CHK2(h)
In short: as §1

[7] = target: panel of human kinases (kinase named in endpoint) (Homo sapiens, UniProt P51955); settings: 10 µM; read-out: Activity (%), NEK2(h)
In short: as §1

[8] = target: panel of human kinases (kinase named in endpoint) (Homo sapiens, UniProt O00443); settings: 10 µM; read-out: Activity (%), PI3KC2a(h)
In short: as §1

[9] = target: panel of human kinases (kinase named in endpoint) (Homo sapiens, UniProt P29317); settings: 10 µM; read-out: Activity (%), EphA2(h)
In short: as §1

[10] = target: panel of human kinases (kinase named in endpoint) (Homo sapiens, UniProt Q13153); settings: 10 µM; read-out: Activity (%), PAK1(h)
In short: as §1

[11] = target: panel of human kinases (kinase named in endpoint) (Homo sapiens, UniProt Q9NYL2); settings: 10 µM; read-out: Activity (%), ZAK(h)
In short: as §1

[12] = target: panel of human kinases (kinase named in endpoint) (Homo sapiens, UniProt Q92630); settings: 10 µM; read-out: Activity (%), DYRK2(h)
In short: as §1

[13] = target: panel of human kinases (kinase named in endpoint) (Homo sapiens, UniProt Q08881); settings: 10 µM; read-out: Activity (%), Itk(h)
In short: as §1

[14] = target: panel of human kinases (kinase named in endpoint) (Homo sapiens, UniProt P22607); settings: 10 µM; read-out: Activity (%), FGFR3(h)
In short: as §1

[15] = target: panel of human kinases (kinase named in endpoint) (Homo sapiens, UniProt Q13557); settings: 10 µM; read-out: Activity (%), CaMKIIδ(h)
In short: as §1

[16] = target: panel of human kinases (kinase named in endpoint) (Homo sapiens, UniProt P54646); settings: 10 µM; read-out: Activity (%), AMPKα2(h)
In short: as §1

[17] = target: panel of human kinases (kinase named in endpoint) (Homo sapiens, UniProt O95819); settings: 10 µM; read-out: Activity (%), MAP4K4(h)
In short: as §1

[18] = target: panel of human kinases (kinase named in endpoint) (Homo sapiens, UniProt Q96GD4); settings: 10 µM; read-out: Activity (%), Aurora-B(h)
In short: as §1

[19] = target: panel of human kinases (kinase named in endpoint) (Homo sapiens, UniProt Q16566); settings: 10 µM; read-out: Activity (%), CaMKIV(h)
In short: as §1

[20] = target: panel of human kinases (kinase named in endpoint) (Homo sapiens, UniProt P43403); settings: 10 µM; read-out: Activity (%), ZAP-70(h)
In short: as §1

[21] = target: panel of human kinases (kinase named in endpoint) (Homo sapiens, UniProt Q99755); settings: 10 µM; read-out: Activity (%), PIP5K1a(h)
In short: as §1

[22] = target: panel of human kinases (kinase named in endpoint) (Homo sapiens, UniProt P42345); settings: 10 µM
In short: as §1

[23] = target: panel of human kinases (kinase named in endpoint) (Homo sapiens, UniProt Q8IY84); settings: 10 µM; read-out: Activity (%), NIM1(h)
In short: as §1

[24] = target: panel of human kinases (kinase named in endpoint) (Homo sapiens, UniProt P22694); settings: 10 µM; read-out: Activity (%), PKAcβ(h)
In short: as §1

[25] = target: panel of human kinases (kinase named in endpoint) (Homo sapiens, UniProt Q9Y243); settings: 10 µM; read-out: Activity (%), PKBγ(h)
In short: as §1

[26] = target: panel of human kinases (kinase named in endpoint) (Homo sapiens, UniProt P50750); settings: 10 µM; read-out: Activity (%), CDK9/cyclin T1(h)
In short: as §1

panel of human kinases (kinase named in endpoint) (Homo sapiens, UniProt P04626), sequence (P04626 23-1255): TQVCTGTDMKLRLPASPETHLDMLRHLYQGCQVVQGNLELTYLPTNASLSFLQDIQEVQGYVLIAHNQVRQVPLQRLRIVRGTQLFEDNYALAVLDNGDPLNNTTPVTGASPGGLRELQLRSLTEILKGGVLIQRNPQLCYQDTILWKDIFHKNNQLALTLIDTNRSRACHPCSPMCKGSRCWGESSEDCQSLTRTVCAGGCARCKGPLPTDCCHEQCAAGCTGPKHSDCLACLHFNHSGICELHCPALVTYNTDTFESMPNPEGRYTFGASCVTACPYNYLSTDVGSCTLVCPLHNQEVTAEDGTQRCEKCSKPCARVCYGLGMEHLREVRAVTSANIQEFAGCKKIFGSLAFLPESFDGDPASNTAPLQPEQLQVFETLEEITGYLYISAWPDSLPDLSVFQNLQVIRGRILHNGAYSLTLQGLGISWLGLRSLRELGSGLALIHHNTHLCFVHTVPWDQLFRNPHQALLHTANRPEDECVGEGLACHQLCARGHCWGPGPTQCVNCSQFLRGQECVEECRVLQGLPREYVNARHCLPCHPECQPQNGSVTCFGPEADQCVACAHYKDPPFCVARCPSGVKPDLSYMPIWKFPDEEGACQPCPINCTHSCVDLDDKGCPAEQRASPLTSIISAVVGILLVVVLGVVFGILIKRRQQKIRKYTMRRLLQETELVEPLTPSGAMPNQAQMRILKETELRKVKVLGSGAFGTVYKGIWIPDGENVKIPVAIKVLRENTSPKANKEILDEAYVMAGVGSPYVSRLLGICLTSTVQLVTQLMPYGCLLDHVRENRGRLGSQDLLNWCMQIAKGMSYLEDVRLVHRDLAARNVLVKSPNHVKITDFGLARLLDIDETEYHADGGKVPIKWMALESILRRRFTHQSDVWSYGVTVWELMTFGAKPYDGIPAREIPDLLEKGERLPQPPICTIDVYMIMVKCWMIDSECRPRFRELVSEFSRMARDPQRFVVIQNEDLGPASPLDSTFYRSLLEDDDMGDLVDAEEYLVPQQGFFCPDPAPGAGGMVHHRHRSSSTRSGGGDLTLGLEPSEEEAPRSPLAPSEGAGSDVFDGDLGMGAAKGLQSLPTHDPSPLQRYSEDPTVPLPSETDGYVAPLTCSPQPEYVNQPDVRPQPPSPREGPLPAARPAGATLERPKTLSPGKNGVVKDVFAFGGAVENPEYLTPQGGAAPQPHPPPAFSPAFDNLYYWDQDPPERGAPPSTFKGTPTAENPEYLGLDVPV
panel of human kinases (kinase named in endpoint) (Homo sapiens, UniProt P06493), sequence (P06493 whole entry): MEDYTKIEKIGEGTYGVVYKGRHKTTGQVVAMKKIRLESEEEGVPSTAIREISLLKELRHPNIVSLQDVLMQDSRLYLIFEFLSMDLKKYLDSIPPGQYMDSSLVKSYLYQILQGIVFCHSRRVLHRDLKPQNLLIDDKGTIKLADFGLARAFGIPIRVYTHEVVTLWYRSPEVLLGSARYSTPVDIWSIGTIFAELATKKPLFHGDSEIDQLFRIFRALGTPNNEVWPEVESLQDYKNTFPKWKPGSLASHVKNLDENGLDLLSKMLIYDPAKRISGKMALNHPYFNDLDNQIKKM
panel of human kinases (kinase named in endpoint) (Homo sapiens, UniProt P51955), sequence (P51955 whole entry): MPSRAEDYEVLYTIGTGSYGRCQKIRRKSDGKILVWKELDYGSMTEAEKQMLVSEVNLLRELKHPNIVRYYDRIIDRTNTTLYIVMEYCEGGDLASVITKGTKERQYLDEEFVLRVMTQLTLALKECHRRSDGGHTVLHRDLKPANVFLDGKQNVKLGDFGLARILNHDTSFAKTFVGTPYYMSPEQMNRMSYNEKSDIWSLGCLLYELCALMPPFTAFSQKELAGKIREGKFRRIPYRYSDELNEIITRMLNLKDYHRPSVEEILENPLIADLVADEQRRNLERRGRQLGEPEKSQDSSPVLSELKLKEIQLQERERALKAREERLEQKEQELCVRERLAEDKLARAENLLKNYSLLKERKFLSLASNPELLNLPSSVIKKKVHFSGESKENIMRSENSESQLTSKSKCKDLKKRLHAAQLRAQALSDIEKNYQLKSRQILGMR
panel of human kinases (kinase named in endpoint) (Homo sapiens, UniProt Q8IY84), sequence (Q8IY84 whole entry): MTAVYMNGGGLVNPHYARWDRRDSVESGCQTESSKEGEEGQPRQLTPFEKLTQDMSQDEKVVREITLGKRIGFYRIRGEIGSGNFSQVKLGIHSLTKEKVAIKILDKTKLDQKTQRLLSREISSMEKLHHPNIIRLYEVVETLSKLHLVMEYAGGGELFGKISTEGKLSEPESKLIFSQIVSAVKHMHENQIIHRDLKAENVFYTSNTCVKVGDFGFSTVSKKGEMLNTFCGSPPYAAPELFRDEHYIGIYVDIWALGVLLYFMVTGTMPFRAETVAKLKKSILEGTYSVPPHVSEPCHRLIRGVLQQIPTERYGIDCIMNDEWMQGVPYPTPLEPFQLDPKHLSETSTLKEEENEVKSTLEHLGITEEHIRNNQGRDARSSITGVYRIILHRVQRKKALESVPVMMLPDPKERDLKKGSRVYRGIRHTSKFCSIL
panel of human kinases (kinase named in endpoint) (Homo sapiens, UniProt Q9H422), sequence (Q9H422 whole entry): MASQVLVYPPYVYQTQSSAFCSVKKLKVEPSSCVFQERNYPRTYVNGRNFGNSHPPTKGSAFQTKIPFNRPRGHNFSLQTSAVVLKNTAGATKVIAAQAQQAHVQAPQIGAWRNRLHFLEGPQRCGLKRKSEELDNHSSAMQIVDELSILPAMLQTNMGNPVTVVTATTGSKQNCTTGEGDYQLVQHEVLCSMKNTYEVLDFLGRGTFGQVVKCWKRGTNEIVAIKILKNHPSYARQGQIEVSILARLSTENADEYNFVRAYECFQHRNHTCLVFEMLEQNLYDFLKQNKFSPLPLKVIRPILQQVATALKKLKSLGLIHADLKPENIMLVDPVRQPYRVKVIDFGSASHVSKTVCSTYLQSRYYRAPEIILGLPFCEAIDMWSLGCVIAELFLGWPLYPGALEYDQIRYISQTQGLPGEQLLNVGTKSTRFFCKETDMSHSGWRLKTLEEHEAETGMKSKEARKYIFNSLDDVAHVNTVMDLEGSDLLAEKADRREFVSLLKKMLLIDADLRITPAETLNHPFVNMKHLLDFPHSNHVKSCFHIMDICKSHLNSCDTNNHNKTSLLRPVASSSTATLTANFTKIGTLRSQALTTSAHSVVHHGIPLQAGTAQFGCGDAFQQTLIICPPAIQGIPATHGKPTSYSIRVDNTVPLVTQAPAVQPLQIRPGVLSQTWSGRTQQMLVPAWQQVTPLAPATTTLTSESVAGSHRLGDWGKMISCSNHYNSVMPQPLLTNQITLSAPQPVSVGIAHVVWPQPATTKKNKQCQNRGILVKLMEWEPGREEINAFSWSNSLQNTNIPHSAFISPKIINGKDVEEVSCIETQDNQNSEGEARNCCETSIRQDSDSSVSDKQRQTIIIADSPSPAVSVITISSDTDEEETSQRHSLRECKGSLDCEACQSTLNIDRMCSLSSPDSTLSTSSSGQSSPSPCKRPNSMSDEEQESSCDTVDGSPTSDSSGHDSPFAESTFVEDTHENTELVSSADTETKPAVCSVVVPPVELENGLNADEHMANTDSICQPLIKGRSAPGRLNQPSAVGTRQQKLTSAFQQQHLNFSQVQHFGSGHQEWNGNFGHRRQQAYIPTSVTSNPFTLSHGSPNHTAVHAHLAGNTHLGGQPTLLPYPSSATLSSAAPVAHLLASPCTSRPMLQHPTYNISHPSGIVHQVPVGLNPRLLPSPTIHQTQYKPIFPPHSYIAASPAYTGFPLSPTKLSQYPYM
panel of human kinases (kinase named in endpoint) (Homo sapiens, UniProt Q92630), sequence (Q92630 whole entry): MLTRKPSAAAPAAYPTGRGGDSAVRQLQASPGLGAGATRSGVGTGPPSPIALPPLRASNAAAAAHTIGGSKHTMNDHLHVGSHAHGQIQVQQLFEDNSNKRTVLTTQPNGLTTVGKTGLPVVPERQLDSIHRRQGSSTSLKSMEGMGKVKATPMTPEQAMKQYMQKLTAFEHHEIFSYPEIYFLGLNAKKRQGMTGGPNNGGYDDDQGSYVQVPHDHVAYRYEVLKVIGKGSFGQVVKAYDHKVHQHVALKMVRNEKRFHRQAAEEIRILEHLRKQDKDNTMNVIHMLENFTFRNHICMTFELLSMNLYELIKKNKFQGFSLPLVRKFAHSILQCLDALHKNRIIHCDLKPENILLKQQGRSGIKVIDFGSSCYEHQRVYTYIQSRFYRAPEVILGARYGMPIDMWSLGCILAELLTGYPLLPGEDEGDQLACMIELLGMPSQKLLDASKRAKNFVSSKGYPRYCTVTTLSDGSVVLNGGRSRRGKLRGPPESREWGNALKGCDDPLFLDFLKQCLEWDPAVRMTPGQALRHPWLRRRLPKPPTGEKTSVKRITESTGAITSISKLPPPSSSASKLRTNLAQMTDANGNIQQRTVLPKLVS
panel of human kinases (kinase named in endpoint) (Homo sapiens, UniProt P50750), sequence (P50750 whole entry): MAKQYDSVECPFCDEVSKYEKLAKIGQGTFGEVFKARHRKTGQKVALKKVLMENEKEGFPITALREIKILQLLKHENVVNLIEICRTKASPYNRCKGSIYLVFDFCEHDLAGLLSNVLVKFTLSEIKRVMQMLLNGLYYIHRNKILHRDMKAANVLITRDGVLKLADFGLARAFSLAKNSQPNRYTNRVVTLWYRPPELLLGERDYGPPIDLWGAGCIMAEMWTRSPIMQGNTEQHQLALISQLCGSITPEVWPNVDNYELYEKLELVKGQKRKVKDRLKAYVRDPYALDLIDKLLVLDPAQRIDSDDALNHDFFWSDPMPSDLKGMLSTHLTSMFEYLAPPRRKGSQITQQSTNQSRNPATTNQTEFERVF
panel of human kinases (kinase named in endpoint) (Homo sapiens, UniProt Q16539), sequence (Q16539 whole entry): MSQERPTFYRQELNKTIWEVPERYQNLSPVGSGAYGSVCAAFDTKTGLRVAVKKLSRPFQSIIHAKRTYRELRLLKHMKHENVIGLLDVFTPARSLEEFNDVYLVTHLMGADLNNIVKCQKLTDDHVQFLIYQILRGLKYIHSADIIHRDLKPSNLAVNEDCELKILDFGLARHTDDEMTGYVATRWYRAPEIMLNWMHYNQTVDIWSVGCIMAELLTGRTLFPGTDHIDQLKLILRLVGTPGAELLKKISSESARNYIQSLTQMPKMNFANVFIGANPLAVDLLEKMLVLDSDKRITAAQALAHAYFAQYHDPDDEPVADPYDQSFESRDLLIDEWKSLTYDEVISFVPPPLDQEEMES

CC(C)C(=O)Nc1nc2cc(-c3ccc4c(c3)c(C(=O)NC(C)c3ccccc3)cn4C)ccn2n1 (stereo not drawn) [RI-962]
activity at 10 µM [1]: 118%
activity at 10 µM [2]: 89%
activity at 10 µM [3]: 99%
activity at 10 µM [4]: 85%
activity at 10 µM [5]: 104%
activity at 10 µM [6]: 98%
activity at 10 µM [7]: 100%
activity at 10 µM [8]: 102%
activity at 10 µM [9]: 96%
activity at 10 µM [10]: 105%
activity at 10 µM [11]: 72%
activity at 10 µM [12]: 92%
activity at 10 µM [13]: 71%
activity at 10 µM [14]: 72%
activity at 10 µM [15]: 92%
activity at 10 µM [16]: 89%
activity at 10 µM [17]: 88%
activity at 10 µM [18]: 119%
activity at 10 µM [19]: 77%
activity at 10 µM [20]: 95%
activity at 10 µM [21]: 106%
activity at 10 µM ([22]; read-out: Activity (%), mTOR(h)): 87%
activity at 10 µM ([22]; read-out: Activity (%), mTOR/FKBP12(h)): 98%
activity at 10 µM [23]: 88%
activity at 10 µM [24]: 117%
activity at 10 µM [25]: 95%
activity at 10 µM [26]: 67%

Reference: paper PMC9653409, “Generative deep learning enables the discovery of a potent and selective RIPK1 inhibitor” (Nature Communications, 2022)
